Source: the supplement of paper PMC6470124

Key:
[1] = absolute recovery over mixed-bed multilayer solid-phase extraction; higher = better recovery; conditions: enrichment method: SPE
In short: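 Elution from a three-layer mixed-bed cartridge used basic followed by acidic ethyl acetate/methanol, after loading either 1000 mL of unfiltered nanopure water or 100–250 mL of wastewater that had been set to pH 6.5 and glass-fibre filtered. Standards went in before or after extraction, or were left out, at 200 ng/L (water) or 1000 ng/L (wastewater), with class exceptions. Internal standards were added afterwards, and measurement was by liquid chromatography with high-resolution tandem mass spectrometry in both ionisation modes. For absolute recovery, background-corrected response ratios of pre-spiked samples were compared with those of post-spiked samples and averaged over at least two replicates.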

[2] = absolute recovery over vacuum-assisted evaporative concentration; higher = better recovery; conditions: enrichment method: VEC
In short: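 Water samples (influent 6 mL, effluent 15 mL, surface and nanopure water 60 mL) were spiked with standards before concentration, after concentration or not at all, at 200 ng/L (nanopure/surface) or 1000 ng/L (wastewater), with class- and compound-specific adjustments. They were evaporated at 55 °C and 20 mbar to about 0.3 mL, brought to 0.4 mL and centrifuged. Internal standards were added afterwards and samples were analysed by LC-HRMS/MS. Absolute recovery was (response ratio pre − unspiked)/(post − unspiked) × 100, using averages of ≥ 2 replicates.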

[3] = LC retention time (Atlantis T3, 5-95% MeOH gradient, 0.1% formic acid); higher = more retained / less polar
In short: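 Retention times refer to reference standards measured by liquid chromatography with high-resolution tandem mass spectrometry. Separation was on an Atlantis T3 C18 column (3 × 150 mm, 3 μm) at 0.3 mL/min with a 5 to 95% methanol gradient over 17.5 min, both solvents carrying 0.1% formic acid. Positive and negative electrospray were run separately on a QExactive Plus, and TraceFinder peak integration (5 ppm tolerance, at least three points per peak) was reviewed by hand.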

SMILES	absolute recovery ([1]; nanopure water)	absolute recovery ([1]; surface water)	absolute recovery ([1]; wastewater effluent)	absolute recovery ([1]; wastewater influent)	absolute recovery ([2]; wastewater effluent)	absolute recovery ([2]; wastewater influent)	LC retention time [3]
C#CC(C)(C)NC(=O)c1cc(Cl)cc(Cl)c1 [Propyzamide]	97.1%	88.9%	87.8%	101%	82%	88.4%	20 min
CC(=O)Nc1ccc(S(=O)(=O)[N-]c2nccs2)cc1 [N4-Acetyl-Sulfathiazol]	98.7%	96.1%	94%	90%	105%	101%	12.2 min
Nc1ccn(C2OC(CO)C(O)C2(F)F)c(=O)n1 (stereo not drawn) [Gemcitabin]	86.7%	94.5%	94.3%	91.1%	88.8%	12.8%	6.58 min
COc1cccc(C2(O)CCCCC2C[N+](C)(C)[O-])c1 (stereo not drawn) [Tramadol-N-oxide]	99.4%	91.3%	90.2%	95%	104%	102%	12.7 min
CCc1cccc2c3c([nH]c12)C(CC)(CC(=O)[O-])OCC3 (stereo not drawn) [Etodolac]	86.6%	80.5%	82.3%	93.5%	103%	99.8%	20.8 min
COC(=O)c1ccc(CNS(C)(=O)=O)cc1S(=O)(=O)[N-]C(=O)Nc1nc(OC)cc(OC)n1 [Mesosulfuron-methyl]	101%	95%	96.2%	98.7%	111%	101%	18 min
CSC1=NC(C)(c2ccccc2)C(=O)N1Nc1ccccc1 (stereo not drawn) [Fenamidone]	100%	107%	101%	91.6%	106%	98.7%	19.2 min
Nc1nnc(-c2cccc(Cl)c2Cl)c(N)n1 [Lamotrigin]	96.2%	96.6%	91.1%	96.7%	104%	97.7%	12.8 min
CCCC(NOCC)=C1C(=O)CC(C2CCCSC2)CC1=O (stereo not drawn) [Cycloxydim]	73.9%	78.4%	76.3%	92.2%	87.3%	76.6%	22.3 min
Cc1cc(=O)n(-c2ccccc2)n1C [Phenazon (=Antipyrin)]	83.8%	93.4%	91.4%	95.5%	106%	100%	13.3 min
CCCC(Cn1cncn1)c1ccc(Cl)cc1Cl (stereo not drawn) [Penconazol]	98.5%	97.1%	100%	87.3%	105%	105%	20.9 min
NC(=O)c1ncn(C2OC(CO)C(O)C2O)n1 (stereo not drawn) [Ribavirin]	33.5%	30.5%	33.2%	37%	87%	67.6%	4.79 min
O=S(=O)([O-])c1ccc2ccccc2c1 [2-Naphthalenesulfonic-acid]			92.6%		114%	88.2%	17.2 min
O=C1[N-]S(=O)(=O)c2ccccc21 [Saccharin]	101%	105%	95.6%		102%		11.6 min
Cc1cn(C2CC(N=[N+]=[N-])C(CO)O2)c(=O)[nH]c1=O (stereo not drawn) [Zidovudine]	98.2%	93.4%	93.9%	97.1%	103%	104%	13.1 min
CC([NH3+])Cc1ccccc1 (stereo not drawn) [Amphetamin]	97.7%	85.5%	87.4%	91.8%	97.8%	85.5%	10.4 min
CC(C)[NH2+]CC(O)COc1ccc(CC(=O)[O-])cc1 (stereo not drawn) [Atenolol-acid (=Metoprolol acid)]	97.3%	98.9%	92.1%	75.4%	108%	104%	10.5 min
CCCCc1nc(Cl)c(CO)n1Cc1ccc(-c2ccccc2-c2nn[nH]n2)cc1 [Losartan]	85.5%	85.9%	80.1%	88%	99.1%	105%	18.3 min
CCC(C)(C)C(=O)OC1=C(c2ccc(Cl)cc2Cl)C(=O)OC12CCCCC2 [Spirodiclofen]		12.2%	18%		77.8%	44.4%	23.8 min
CCNc1nc(O)nc(NCC)n1 [Simazin-2-hydroxy]	84.5%	78.7%	88.3%	82.7%	105%	107%	10.1 min
CC[N+]1([O-])CCCC1CNC(=O)c1cc(S(=O)(=O)CC)c(N)cc1OC (stereo not drawn) [Amisulpride-N-Oxide]	99.2%	95.3%	93.2%	93.4%	105%	105%	11.2 min
CS(=O)(=O)c1ccc(C(=O)[O-])c([N+](=O)[O-])c1 [Mesotrion-MNBA]	98%	57.1%	89.3%	93.6%	98.9%	104%	9.31 min
N#Cc1nn(-c2c(Cl)cc(C(F)(F)F)cc2Cl)c(N)c1S(=O)C(F)(F)F (stereo not drawn) [Fipronil]	99%	95.7%	94.2%	88.5%	103%	98.5%	20.4 min
CC(C)[NH+](CCC(C(N)=O)(c1ccccc1)c1ccccn1)C(C)C (stereo not drawn) [Disopyramide]	90%	94.4%	92%	104%	98.1%	106%	12.2 min
COC(=O)N(OC)c1ccccc1COc1ccn(-c2ccc(Cl)cc2)n1 [Pyraclostrobin]	101%	98%	91.5%	99.3%	87.5%	90.7%	21.1 min
CCOc1ccc2ccccc2c1C(=O)NC1C(=O)N2C1SC(C)(C)C2C(=O)[O-] (stereo not drawn) [Nafcillin]	74.1%	27%	36.7%	44.8%	111%	144%	19 min

SMILES	absolute recovery ([1]; nanopure water)	absolute recovery ([1]; surface water)	absolute recovery ([1]; wastewater effluent)	absolute recovery ([1]; wastewater influent)	absolute recovery ([2]; wastewater effluent)	absolute recovery ([2]; wastewater influent)	LC retention time [3]
CSc1nc(NC(C)C)nc(NC(C)C)n1 [Prometryn G]	97.7%	92.8%	92.4%	94.1%	94.8%	94.8%	18.2 min
Cc1cccc(C)c1OCC(C)[NH3+] (stereo not drawn) [Mexiletine]	69.1%	68.7%	67.6%	80.7%	97.3%	99.1%	13.2 min
CC(C)c1nc(CN(C)C(=O)NC(C(=O)NC(Cc2ccccc2)CC(O)C(Cc2ccccc2)NC(=O)OCc2cncs2)C(C)C)cs1 (stereo not drawn) [Ritonavir]	85.2%	92.4%	86.9%	87.6%	106%	99.5%	21 min
CC(=O)Nc1ccc(S(=O)(=O)[N-]c2ncccn2)cc1 [N4-Acetyl-Sulfadiazin]	98.6%	93.8%	89.2%	92.8%	113%	99.5%	12 min
COC(=O)c1cc(C(=O)OC)cc(S(=O)(=O)[O-])c1 [Dimethyl-5-Sulfoisophthalate]	96%	92.9%	96.6%	15.6%	108%	90.7%	16.1 min
CN1C(=O)CN=C(c2ccccc2)c2cc(Cl)ccc21 [Diazepam]	97.6%	94.9%	93.6%	95.7%	105%	99.2%	19.5 min
[NH3+]C12CC3CC(CC(C3)C1)C2 [Amantadine]	90.7%	79.3%	86.2%	87.2%	104%	114%	12.1 min
CC([NH3+])C(O)c1ccccc1 (stereo not drawn) [Cathine]	75.1%	70.2%	68.1%	77.6%	104%	96.1%	9.27 min
CCC1(c2ccccc2)C(=O)NCNC1=O [Primidon]	94.9%	92.4%	88.6%	92.9%	103%	98.5%	14.5 min
[NH3+]CC1(CC(=O)[O-])CCCCC1 [Gabapentin]	20.3%				99.5%	98.3%	10.4 min
COc1nc(NC(=O)[N-]S(=O)(=O)c2ccccc2C(F)(F)F)nc(C(F)(F)F)n1 [Tritosulfuron]	97%	93.4%	90.7%	103%	94.7%	101%	19.6 min
CCC(CC)OC1C=C(C(=O)[O-])CC([NH3+])C1NC(C)=O (stereo not drawn) [Oseltamivir-carboxylat]	75.9%	24.7%	44.2%	60.1%	105%	105%	12.5 min
Cc1cc(Cl)ccc1OC(C)C(=O)[O-] (stereo not drawn) [Mecoprop]	100%	99.2%	94.9%	94.2%	101%	99%	20 min
CC[NH+](CC)CC#CCOC(=O)C(O)(c1ccccc1)C1CCCCC1 (stereo not drawn) [Oxybutynin]	92.8%	75.1%	89.1%		90.1%	136%	16.2 min
O=C([O-])C(c1ccccc1Cl)[NH+]1CCc2sccc2C1 (stereo not drawn) [Clopidogrel-Carboxylic-Acid]	93.2%	94%	91.1%	92.8%	103%	102%	14.8 min
CCC(=O)OC(Cc1ccccc1)(c1ccccc1)C(C)C[NH+](C)C (stereo not drawn) [Propoxyphene]	85.3%	94.6%	91.5%	72.4%	108%	110%	15.6 min
CCCCCC(C)OC(=O)COc1ccc(Cl)c2cccnc12 (stereo not drawn) [Cloquintocet-mexyl]	56.8%	67.2%	70.9%		111%	103%	22.4 min
CCn1cc(C(=O)[O-])c(=O)c2cc(F)c(N3CC[NH2+]CC3)cc21 [Norfloxacin]	75.9%	68.2%	74%	74.9%	104%		11.5 min
CCc1cccc(C)c1N1C(=O)COCC1C (stereo not drawn) [Metolachlor-Morpholinon]	102%	86.5%	83.1%	91.2%	89.6%		18.1 min
COC(=O)[N-]S(=O)(=O)c1ccc(N)cc1 [Asulam]	101%	34.2%	42.6%	43.9%	95.8%	88.4%	10.5 min
CCC(C)C(=O)OC1CC(C)C=C2C=CC(C)C(CCC3CC(O)CC(=O)O3)C21 (stereo not drawn) [Lovastatin]	70.5%	70.9%	76.1%	59.5%	107%	106%	22.2 min
C[NH2+]CC(c1ccc(O)cc1)C1(O)CCCCC1 (stereo not drawn) [N-O-Didesvenlafaxin]	80%	79.7%	76%	83.4%	106%	100%	12.1 min
C[N+](C)([O-])CCC(c1ccccc1)c1ccccn1 (stereo not drawn) [Pheniramine-N-oxide]	94.5%	93.4%	88.3%	89%	105%	94.2%	11.6 min
CC(=O)SC1CC2=CC(=O)CCC2(C)C2CCC3(C)C(CCC34CCC(=O)O4)C12 (stereo not drawn) [Spironolacton]	80.9%	79.1%	87.9%	92%	93.7%	91.9%	19.3 min
C[NH2+]C(CC(C)C)C(=O)NC1C(=O)NC(CC(N)=O)C(=O)NC2C(=O)NC3C(=O)NC(C(=O)NC(C(=O)[O-])c4cc(O)cc(O)c4-c4cc3ccc4O)C(O)c3ccc(c(Cl)c3)Oc3cc2cc(c3OC2OC(CO)C(O)C(O)C2OC2CC(C)([NH3+])C(O)C(C)O2)Oc2ccc(cc2Cl)C1O (stereo not drawn) [Vancomycin]	108%	90.4%	82%	92.8%	108%	109%	9.01 min
